In patent US20100119499A1, “STILBENE-BASED COMPOSITIONS AND METHODS OF USE THEREFOR” (priority 2009, published 2010):
Like-named read-outs stand apart in the source and are kept apart here.

Columns and labels:
MAO leukemia cell line = details: relative to cis-resveratrol; cited from earlier work
[1] = total reactive antioxidant potential against ABAP-derived peroxyl radicals; details: converted value in brackets
DPPH radical scavenging = details: converted value in brackets
humans = test: oral pterostilbene combined with nutrients, athletic performance in humans; assay type: in vivo, human
Procedure: Additional work described herein addressed the effects of combining oral pterostilbene with various nutrients on athletic performance. Specifically, oral pterostilbene was administered with creatine supplements, and the effect of this combination was compared with the effect of creatine supplements alone.
The addition of exogenous dietary carbohydrates such as glucose, isolmaltulose, leucrose, trehalose, trehalulose, amylose, ribose, and maltodextrin to the creatine-containing supplement allowed for even higher pterostilbene dosing (up to 25 mg of oral pterostilbene) and produced an even more pronounced, immediate increase in athletic performance without the onset of hypoglycemia.
While not wishing to be bound by any particular theory, the inventors believe that pterostilbene increases or otherwise effects a change in the rate and quantity of the transfer of these nutrients from the blood plasma into the tissues and organs. Such dietary nutrients include, but are not limited to, creatine and its salts esters, amides and chelates, creatinol-O-phosphate, branched chain amino acids (leucine, isoleucine, valine) and their salts, esters, amides and chelates, branched chain keto-acids including, but not limited to ketoisocaproate and its salts, other ergogenic, performance-enhancing amino acids including, but not limited to, taurine, beta-alanine, arginine, ornithine, aspartic acid, glutamine, glutaric acid, agmatine, citrulline, norvaline, glycine, cysteine and their salts, ester, amides and chelates, performance enhancing dipeptides including, but not limited to, carnitine, anserine and carnosine and their salts and esters and proteins that are known to contain dipeptides such as whey or soy or egg protein isolates or concentrates or any combination of these non-carbohydrate based dietary nutrients.
Further, the addition and oral consumption of one or more exogenous dietary carbohydrates, including but not limited to rice oligodextrin, amylose, amylopectin, glucose, maltodextrin, maltose, isolmaltulose, leucrose, trehalulose, ribose, trehalose, and/or fructose in conjunction with pterostilbene and a non-carbohydrate based dietary nutrient or nutrients simultaneously further increases the athletic performance-enhancing effects of pterostilbene and the non-carbohydrate dietary nutrient(s) by up to 50% and also increases the tolerability of pterostilbene in humans by up to 50%.

[2] = inhibition of citronellal thermo-oxidation; details: converted value in brackets
rats = details: doses 10 mg/kg up to 40 mg/kg bodyweight; cited from earlier work
[3] = ABAP-derived peroxyl radicals; cited from earlier work
normal human fibroblasts = details: cited from earlier work
healthy, adult humans = test: oral pterostilbene in humans, whole blood glucose by finger prick glucometer; assay type: in vivo
Procedure: In work described herein using pterostilbene orally in humans (supplied by Chromadex, 10005 Muirlands Boulevard, Suite G, Irvine, Calif. 92618, USA) dosing of oral pterostilbene was initially started at a lower dose than the calculated HED, with the intent of titrating the dose up as needed.
The test subject was immediately treated with oral glucose and other carbohydrates and recovered without other incident. […] At oral dosing above 0.165 mg/kg (actual dose tested 20 mg) pterostilbene is capable of inducing profound hypoglycemia (e.g., whole blood glucose at or below 55 mg/dL) and the side effects associated with this condition. Accordingly, at the doses predicted by the FDA/CDER formula, oral administration of pterostilbene to humans would likely be fatal.

[4] = test system: streptozotocin-induced hyperglycemic rats; details: cited from earlier work
[5] = 5 mg oral (0.0486 mg/kg) added to creatine-containing liquid supplement vs supplement alone, one healthy person
[6] = pterostilbene plus non-carbohydrate nutrient(s) plus exogenous dietary carbohydrates, oral

SMILES | ability to induce apoptosis compared to cis-resveratrol (MAO leukemia cell line) | total reactive antioxidant potential [1] [mg/mL] | EC50, scavenging of DPPH radicals (DPPH radical scavenging) [µg/mL] | effect on athletic performance (humans; 3 mg to 20 mg added to a creatine-containing supplement) | immediate increase in anaerobic work capacity (humans; [5]) [%] | immediate increase in maximal exertion power (humans; [5]) [%] | oral dose possible without the onset of hypoglycemia (humans; human, in vivo, po) | further increase of athletic performance-enhancing effects by added carbohydrates (humans; [6]) | increase of tolerability in humans by added carbohydrates (humans; [6]) | EQ value, inhibition of cintronellal thermo-oxidation [2] [mg/mL] | adverse effects (rats) | total reactive antioxidant potential [3] [mM] | reduction of thiobarbituric acid reactive substances (TBARS) production (normal human fibroblasts) [%] | drop of whole blood glucose level (healthy, adult humans; 30 mg oral single dose (about 0.248 mg/kg), one healthy person, within fifteen minutes) | oral dose above which profound hypoglycemia and its side effects are induced (healthy, adult humans; profound hypoglycemia e.g. whole blood glucose at or below 55 mg/dL, actual dose tested 20 mg) | lowering of blood glucose level [4] [%]
Oc1ccc(/C=C/c2cc(O)cc(O)c2)cc1 [trans-reseveratrol] | ten times more potent | – | – | – | – | – | – | – | – | – | – | – | – | – | – | –
COc1cc(/C=C/c2ccc(O)cc2)cc(OC)c1 [pterostilbene, trans-3,5-dimethoxy-4′-hydroxystilbene] | – | ~60.7 | ~7680 | improves athletic performance dramatically | ~12 | ~8 | up to 25 mg | up to 50% | up to 50% | ~90.9 | no adverse effects noted | 237 ± 58 | 61 | about 50 mg/dL | above 0.165 mg/kg | 42
